In BindingDB's records for doi:10.1021/jm00018a012 (Pfizer, 1995) one finds IC50 data, which are given here for 24 molecules.

SMILES strings stand for the structures.

For this experiment, the target named is Platelet-activating factor receptor (Oryctolagus cuniculus). The experiment is described as follows: In vitro antagonist activity against platelet activating factor (PAF) receptor, using washed rabbit platelets.

The term IC50 denotes the concentration at which inhibition is half-maximal. The low end stands for greater potency in that assay, the high end for weaker potency in that assay. `Cc1nc2cnccc2n1-c1ccc(C2=Nc3c(C4CCCCC4)nn4c3N(CCCC4)C(=O)C2)cc1` [3-Cyclohexyl-6-[4-(2-methyl-imidazo[4,5-c]pyridin-1-yl)-phenyl]-1,2,5,9-tetraaza-tricyclo[7.4.1.0*4,14*]tetradeca-2,4(14),5-trien-8-one] yielded an IC50 of 0.4 nM.

Regarding `Cc1cc2c(cc1C)-n1c(C)nnc1CC(c1ccc(-n3c(C)nc4cnccc43)cc1)=N2` [1,8,9-Trimethyl-5-[4-(2-methyl-imidazo[4,5-c]pyridin-1-yl)-phenyl]-4H-2,3,6,10b-tetraaza-benzo[e]azulene], it took 2.4 nM to reach half-maximal inhibition (IC50). With `Cc1cn2c(n1)CC(c1ccc(-n3c(C)nc4cnccc43)cc1)=Nc1cc(Cl)c(Cl)cc1-2` [8,9-Dichloro-2-methyl-5-[4-(2-methyl-imidazo[4,5-c]pyridin-1-yl)-phenyl]-4H-3,6,10b-triaza-benzo[e]azulene] the figure was 0.3 nM.

Regarding `Cc1nc2cnccc2n1-c1ccc(C2=Nc3c(-c4ccccn4)nn(C)c3N(C)C(=O)C2)cc1` [1,8-Dimethyl-5-[4-(2-methyl-imidazo[4,5-c]pyridin-1-yl)-phenyl]-3-pyridin-2-yl-6,8-dihydro-1H-pyrazolo[3,4-b][1,4]diazepin-7-one], the IC50 is 14 nM. `Cc1nc2cnccc2n1-c1ccc(C2=Nc3c(-c4ccncc4)nn(C)c3N(C)C(=O)C2)cc1` [1,8-Dimethyl-5-[4-(2-methyl-imidazo[4,5-c]pyridin-1-yl)-phenyl]-3-pyridin-4-yl-6,8-dihydro-1H-pyrazolo[3,4-b][1,4]diazepin-7-one] showed an IC50 of 5.2 nM. `Cc1nc2cnccc2n1-c1ccc(C2=Nc3c(-c4ccccc4)nn(C)c3NC(=O)C2)cc1` [1-Methyl-5-[4-(2-methyl-imidazo[4,5-c]pyridin-1-yl)-phenyl]-3-phenyl-6,8-dihydro-1H-pyrazolo[3,4-b][1,4]diazepin-7-one] returned an IC50 of 0.6 nM. `Cc1nc2cnccc2n1-c1ccc(C2=Nc3c(C4CCCCC4)nn(C)c3N(C)C(=O)C2)cc1` [3-Cyclohexyl-1,8-dimethyl-5-[4-(2-methyl-imidazo[4,5-c]pyridin-1-yl)-phenyl]-6,8-dihydro-1H-pyrazolo[3,4-b][1,4]diazepin-7-one] displayed a 50% inhibitory concentration (IC50) of 0.7 nM. With `Cc1cc2c(cc1C)-n1ccnc1CC(c1ccc(-n3c(C)nc4cnccc43)cc1)=N2` [8,9-Dimethyl-5-[4-(2-methyl-imidazo[4,5-c]pyridin-1-yl)-phenyl]-4H-3,6,10b-triaza-benzo[e]azulene] the figure was 1.3 nM; with `Cc1cnc2n1-c1cc(Cl)c(Cl)cc1N=C(c1ccc(-n3c(C)nc4cnccc43)cc1)C2` [8,9-Dichloro-1-methyl-5-[4-(2-methyl-imidazo[4,5-c]pyridin-1-yl)-phenyl]-4H-3,6,10b-triaza-benzo[e]azulene], 1.2 nM; with `Cc1nc2cnccc2n1-c1ccc(C2=Nc3c(c(-c4ccccc4)nn3C)NC(=O)C2)cc1` [1-Methyl-7-[4-(2-methyl-imidazo[4,5-c]pyridin-1-yl)-phenyl]-3-phenyl-4,6-dihydro-1H-pyrazolo[3,4-b][1,4]diazepin-5-one], 2.7 nM. Consider `Cc1nn(C)c2c1N=C(c1ccc(-n3c(C)nc4cnccc43)cc1)CC(=O)N2` [1,3-Dimethyl-5-[4-(2-methyl-imidazo[4,5-c]pyridin-1-yl)-phenyl]-6,8-dihydro-1H-pyrazolo[3,4-b][1,4]diazepin-7-one], for which the IC50 stood at 26 nM.

With `Cc1nn(C)c2c1N=C(c1ccc(-n3c(C)nc4cnccc43)cc1)CC(=O)N2C` [1,3,8-Trimethyl-5-[4-(2-methyl-imidazo[4,5-c]pyridin-1-yl)-phenyl]-6,8-dihydro-1H-pyrazolo[3,4-b][1,4]diazepin-7-one], the IC50 stood at 17 nM. The molecule `Cc1cc2c(cc1C)-n1cnnc1CC(c1ccc(-n3c(C)nc4cnccc43)cc1)=N2` [8,9-Dimethyl-5-[4-(2-methyl-imidazo[4,5-c]pyridin-1-yl)-phenyl]-4H-2,3,6,10b-tetraaza-benzo[e]azulene] showed an IC50 of 2.3 nM. For `Cc1cc2c(cc1C)-n1c(n[nH]c1=O)CC(c1ccc(-n3c(C)nc4cnccc43)cc1)=N2` [8,9-Dimethyl-5-[4-(2-methyl-imidazo[4,5-c]pyridin-1-yl)-phenyl]-2,4-dihydro-2,3,6,10b-tetraaza-benzo[e]azulen-1-one], 55 nM corresponded to half-maximal inhibition (IC50). For `Cc1nc2cnccc2n1-c1ccc(C2=Nc3c(C(C)C)nn(C)c3N(C)C(=O)C2)cc1` [3-Isopropyl-1,8-dimethyl-5-[4-(2-methyl-imidazo[4,5-c]pyridin-1-yl)-phenyl]-6,8-dihydro-1H-pyrazolo[3,4-b][1,4]diazepin-7-one], the midpoint of inhibition, the IC50, lay at 3.5 nM. Molecule `Cc1nc2cnccc2n1-c1ccc(C2=Nc3c(CO)nn(C)c3N(C)C(=O)C2)cc1` [3-Hydroxymethyl-1,8-dimethyl-5-[4-(2-methyl-imidazo[4,5-c]pyridin-1-yl)-phenyl]-6,8-dihydro-1H-pyrazolo[3,4-b][1,4]diazepin-7-one] showed an IC50 of 14 nM. Under `Cc1nc2cnccc2n1-c1ccc(C2=Nc3c(-c4cccs4)nn(C)c3N(C)C(=O)C2)cc1` [1,8-Dimethyl-5-[4-(2-methyl-imidazo[4,5-c]pyridin-1-yl)-phenyl]-3-thiophen-2-yl-6,8-dihydro-1H-pyrazolo[3,4-b][1,4]diazepin-7-one] stands 1.5 nM; under `Cc1nc2cnccc2n1-c1ccc(C2=Nc3c(-c4ccccc4)nn(C)c3N(C)C(=O)C2)cc1` [1,8-Dimethyl-5-[4-(2-methyl-imidazo[4,5-c]pyridin-1-yl)-phenyl]-3-phenyl-6,8-dihydro-1H-pyrazolo[3,4-b][1,4]diazepin-7-one], 0.5 nM. Under `Cc1cc(C)c2c(n1)N=C(c1ccc(-n3c(C)nc4cnccc43)cc1)CC(=O)N2` [7,9-Dimethyl-4-[4-(2-methyl-imidazo[4,5-c]pyridin-1-yl)-phenyl]-1,3-dihydro-pyrido[3,4-b][1,4]diazepin-2-one] stands 21 nM; under `Cc1nc2cnccc2n1-c1ccc(C2=Nc3c(-c4cccnc4)nn(C)c3N(C)C(=O)C2)cc1` [1,8-Dimethyl-5-[4-(2-methyl-imidazo[4,5-c]pyridin-1-yl)-phenyl]-3-pyridin-3-yl-6,8-dihydro-1H-pyrazolo[3,4-b][1,4]diazepin-7-one], 2.4 nM. Take `Cc1nn(C)c2c1NC(=O)CC(c1ccc(-n3c(C)nc4cnccc43)cc1)=N2` [1,3-Dimethyl-7-[4-(2-methyl-imidazo[4,5-c]pyridin-1-yl)-phenyl]-4,6-dihydro-1H-pyrazolo[3,4-b][1,4]diazepin-5-one]: half-maximal inhibition (IC50) was put at 1 nM. With `Cc1nc2cnccc2n1-c1ccc(C2=Nc3c(COCC(C)C)nn(C)c3N(C)C(=O)C2)cc1` [3-Isobutoxymethyl-1,8-dimethyl-5-[4-(2-methyl-imidazo[4,5-c]pyridin-1-yl)-phenyl]-6,8-dihydro-1H-pyrazolo[3,4-b][1,4]diazepin-7-one] the figure was 0.8 nM. In turn, `Cc1nc2cnccc2n1-c1ccc(C2=Nc3cc(Cl)c(Cl)cc3-n3ccnc3C2)cc1` [8,9-Dichloro-5-[4-(2-methyl-imidazo[4,5-c]pyridin-1-yl)-phenyl]-4H-3,6,10b-triaza-benzo[e]azulene] had a half-maximal inhibitory concentration (IC50) of 1.7 nM. As for `Cc1cc2c(cc1C)-n1nnnc1CC(c1ccc(-n3c(C)nc4cnccc43)cc1)=N2` [8,9-Dimethyl-5-[4-(2-methyl-imidazo[4,5-c]pyridin-1-yl)-phenyl]-4H-1,2,3,6,10b-pentaaza-benzo[e]azulene], the IC50 was 11 nM.
